# Values joined by “and” are separate entries in the source; they are usually repeats but may differ in a detail not shown here. Equal entries are not always repeated.
# Key:
# [1] = test system: early life stage zebrafish (Danio rerio) embryos; assay: Developmental toxicity morphology screen, sealed rotating vial exposure; format: in vivo; parameters: bmd, MO24 / bmd, MORT / bmd, ANY_ / bmd, AXIS / bmd, CRAN / bmd, EDEM / bmd, LTRK / bmd, MUSC / bmdL, ANY_ / bmdU, ANY_ / bmdL, AXIS / bmdU, AXIS / bmdL, CRAN / bmdU, CRAN / bmdL, EDEM / bmdU, EDEM / bmdL, LTRK / bmdU, LTRK / bmdL, MO24 / bmdU, MO24 / bmdL, MORT / bmdU, MORT: unit not given here; conditions: for BMC50 Any effect: Fig. 2 heatmap, exposure 6-24 hpf in vials, summary of all endpoints; for any effect BMD50: SI-T5; for estimated percent Any effect: at 20 μM, 120 hpf, estimated from fitted concentration-response curves
# Method in brief: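 Bleached 6 hpf embryos, eight per sealed glass vial in 2 mL EM, were dosed from a 200x DMSO stock and rotated end-over-end overnight at 28 °C, then moved to chemical-free EM at 24 hpf (32 embryos per treatment). Blinded binary scoring at 120 hpf was pooled as "Any effect". BMC50 is on nominal concentrations.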
# zebrafish embryos = assay: Body burden measurement (GC-MS/MS) and concentration uptake ratio, vial exposure; format: in vivo, Danio rerio; conditions: 20 μM exposure; for measured concentration in embryo extract: 32 pooled embryos, 0.5 mL extract, single replicates
# Method: Body burden was measured for exposure to five chemicals at two timepoints: 24 and 48 hpf. […] The exposure concentration was chosen as it was the maximum possible concentration that ensured enough viable animals for collection at 48 hpf and allowed direct comparison of chemical uptake at the same exposure concentration.
# Chemicals were exposed at 20 μM following the exposure procedure detailed in section 1.3, 24 vials per chemical. At 24 hpf, embryos were pooled in groups of 32 embryos (combining embryos from 4 vials) into 1.5 mL polypropylene RINO-safe lock tubes (n = 3 per chemical treatment, n = 3 per control). Tubes were briefly placed on ice to reduce embryo movement (<1 min); the remaining medium was removed; the tube was then flash frozen in liquid nitrogen and stored at −20 °C until extraction. Embryos in the remaining vials were plated as previously described in section 1.3 until collection at 48 hpf following the same procedure as 24 hpf collections (n = 3 per chemical treatment, n = 1 control).
# Tissue extraction was performed as previously reported ([Rude et al., 2025]). Each sample was spiked with 25 μL internal standard in ethyl acetate and 100 μL of 1 mm glass beads (Next Advance, Troy, NY United States) were added to the RINO-safe lock tubes containing thawed tissue samples and left on ice for 10 min 250 mg of Na2SO4 and 200 μL of ethyl acetate were added to each tube and vortexed. Tubes were homogenized at speed 8 for 6 min in a Bullet Blender (Next Advance, Troy, NY, United States). 300 μL of ethyl acetate was added to each tube and the homogenization step was repeated until no pieces of non-homogenized fish tissue remained. Samples were then centrifuged for 10 min at 4 °C, 1600g. Sample supernatant (0.5 mL) was collected into amber vials and stored at 4 °C until chemical analysis.
# Samples were analyzed for quantitation and identification of 161 PAHs. The method was performed with an Agilent 7890 gas chromatograph (GC), with a 7000C triple quadrupole mass spectrometer (MS/MS) using an Agilent J&W PAH select (30 m × 250 μm × 0.15 μm GC column). Calibration for each analyte utilized at least a 4-point (range: 4–7, median 6 points, n = 161) curve with R^2 ≥ 0.99. Specific instrument conditions were modified from [Anderson et al. (2015)] and are detailed in Table S3. GC–MS/MS data was analyzed using MassHunter Quantitative Analysis v.B.06.00 SP1 build 6.0.388.1 software (Agilent Corp. Wilmington,DE) ([Anderson et al., 2015]). Dynamic muti-reaction monitoring mode was used during analyses, and all PAHs were identified using analytical standards obtained from multiple sources (Table S1). Collison energies were optimized for each individual unsubstituted PAH, alkylation series (C1, C2, etc.), and when possible, specific alkylation group (i.e. methyl, ethyl, etc.).
# Body burden concentrations based on average embryo wet weight at each timepoint were determined by the equation below. Total measured chemical was calculated from ng/mL concentrations times sample volume (0.5 mL). Bodyburdennmol/mgbw=total measured chemicalnmol/number of fish32×average body weightmg
# Average body weights at 24 hpf and 48 hpf were assumed to be 0.31 mg and 0.26 mg, respectively as determined previously ([Rericha et al., 2024]). Statistical analysis to compare time points within chemicals was performed using a two-sided Student’s t-test (p-value ≤ 0.05). An ANOVA with a follow-up Dunn’s test was used to compare body burden between chemicals at 24 hpf (p-value ≤ 0.05). Body burden concentrations at 24 hpf were compared to the estimated percent effect of each measured chemical at the exposure concentration used for body burden analysis (20 μM). These estimates were made using the fitted concentration-response curves previously described in section 2.3.2.2.
# Concentration uptake ratios between vial exposures and 96-well plate exposures were compared using a two-sided Student’s t-test, p-values ≤ 0.05 were considered significant. […]
# [2] = benchmark dose, morphology endpoint ANY_ (any effect)
# [3] = benchmark dose, morphology endpoint AXIS
# [4] = benchmark dose, morphology endpoint CRAN
structure (smiles),measurement,setting,value
CCc1ccc2ccccc2c1 [2-ethylnaphthalene],BMC50 AXIS (curved or bent body axis at 120 hpf),"[1]; Fig. 2, nominal concentration",44.9 µM
same,BMC50 CRAN (craniofacial malformation at 120 hpf),"[1]; Fig. 2, nominal concentration",45.7 µM
same,BMC50 EDEM (pericardial and/or yolk sac edema at 120 hpf),"[1]; Fig. 2, nominal concentration",42.3 µM
same,BMC50 LTRK (lower trunk and/or caudal fin at 120 hpf),"[1]; Fig. 2, nominal concentration",49.8 µM
same,BMC50 MO24 (mortality at 24 hpf),"[1]; Fig. 2, nominal concentration",47.1 µM
same,BMC50 MORT (mortality at 120 hpf),"[1]; Fig. 2, nominal concentration",44.6 µM
same,BMC50 Any effect,[1]; nominal concentration,35.2 µM
same,any effect BMD50,[1],35.16 µM
same,"bmd, MO24","[1]; endpoint MO24, benchmark dose",47.121
same,"bmdL, MO24","[1]; endpoint MO24, lower limit of benchmark dose",45.5775
same,"bmdU, MO24","[1]; endpoint MO24, upper limit of benchmark dose",48.8332
same,"bmd, MORT","[1]; endpoint MORT, benchmark dose",44.5979
same,"bmdL, MORT","[1]; endpoint MORT, lower limit of benchmark dose",42.8494
same,"bmdU, MORT","[1]; endpoint MORT, upper limit of benchmark dose",46.3328
same,"bmd, ANY_","[1]; morphology endpoint ANY_, benchmark dose",35.1578
same,"bmdL, ANY_","[1]; morphology endpoint ANY_, lower limit of benchmark dose",33.394
same,"bmdU, ANY_","[1]; morphology endpoint ANY_, upper limit of benchmark dose",36.9258
same,"bmd, AXIS","[1]; morphology endpoint AXIS, benchmark dose",44.9036
same,"bmdL, AXIS","[1]; morphology endpoint AXIS, lower limit of benchmark dose",41.901
same,"bmdU, AXIS","[1]; morphology endpoint AXIS, upper limit of benchmark dose",49.465
same,"bmd, CRAN","[1]; morphology endpoint CRAN, benchmark dose",45.7058
same,"bmdL, CRAN","[1]; morphology endpoint CRAN, lower limit of benchmark dose",42.7078
same,"bmdU, CRAN","[1]; morphology endpoint CRAN, upper limit of benchmark dose",50.351
same,"bmd, EDEM","[1]; morphology endpoint EDEM, benchmark dose",42.2958
same,"bmdL, EDEM","[1]; morphology endpoint EDEM, lower limit of benchmark dose",39.552
same,"bmdU, EDEM","[1]; morphology endpoint EDEM, upper limit of benchmark dose",46.0615
same,"bmd, LTRK","[1]; morphology endpoint LTRK, benchmark dose",49.8262
same,"bmdL, LTRK","[1]; morphology endpoint LTRK, lower limit of benchmark dose",46.6984
same,"bmdU, LTRK","[1]; morphology endpoint LTRK, upper limit of benchmark dose",55.8128
"Cc1cccc2c(C)cccc12 [1,5-dimethylnaphthalene]",measured concentration in embryo extract,zebrafish embryos; 24 hpf,28000 ng/mL and 23900 ng/mL
same,measured concentration in embryo extract,zebrafish embryos; 48 hpf,9300 ng/mL and 7200 ng/mL
same,BMC50 AXIS (curved or bent body axis at 120 hpf),"[1]; Fig. 2, nominal concentration",47.6 µM
same,BMC50 CRAN (craniofacial malformation at 120 hpf),"[1]; Fig. 2, nominal concentration",48.3 µM
same,BMC50 EDEM (pericardial and/or yolk sac edema at 120 hpf),"[1]; Fig. 2, nominal concentration",47.8 µM
same,BMC50 MO24 (mortality at 24 hpf),"[1]; Fig. 2, nominal concentration",no MO24 BMC50
same,BMC50 Any effect,[1]; nominal concentration,36.9 µM
same,any effect BMD50,[1],36.95 µM
same,estimated percent Any effect,[1],13%
same,"bmd, ANY_",[1]; [2],36.9476
same,"bmd, AXIS",[1]; [3],47.5678
same,"bmd, CRAN",[1]; [4],48.2521
same,"bmd, EDEM","[1]; benchmark dose, morphology endpoint EDEM",47.802
"Cc1ccc2ccc(C)cc2c1 [2,7-dimethylnaphthalene]",measured concentration in embryo extract,zebrafish embryos; 24 hpf,19900 ng/mL
same,measured concentration in embryo extract,zebrafish embryos; 48 hpf,8080 ng/mL and 7630 ng/mL
same,estimated percent Any effect,[1],12%
"Cc1cc(C)c2c(C)cccc2c1 [2,4,5-trimethylnaphthalene]",percent reduction in body burden between 24 and 48 hpf,zebrafish embryos,46%
same,measured concentration in embryo extract,zebrafish embryos; 24 hpf,9270 ng/mL and 6860 ng/mL
same,measured concentration in embryo extract,zebrafish embryos; 48 hpf,4950 ng/mL and 4550 ng/mL and 2080 ng/mL
same,BMC50 AXIS (curved or bent body axis at 120 hpf),"[1]; Fig. 2, nominal concentration",24.2 µM
same,BMC50 CRAN (craniofacial malformation at 120 hpf),"[1]; Fig. 2, nominal concentration",24.8 µM
same,BMC50 MO24 (mortality at 24 hpf),"[1]; Fig. 2, nominal concentration",25.7 µM
same,BMC50 MORT (mortality at 120 hpf),"[1]; Fig. 2, nominal concentration",24.2 µM
same,BMC50 Any effect,[1]; nominal concentration,22 µM
same,any effect BMD50,[1],22.04 µM
same,"bmd, MO24","[1]; benchmark dose, endpoint MO24",25.7458
same,"bmd, MORT","[1]; benchmark dose, endpoint MORT",24.2071
same,"bmd, ANY_",[1]; [2],22.0373
same,"bmd, AXIS",[1]; [3],24.1954
same,"bmd, CRAN",[1]; [4],24.8219
"Cc1ccc2cccc(C)c2c1 [1,7-dimethylnaphthalene]",body burden concentration,zebrafish embryos; 24 hpf,highest concentration
same,measured concentration in embryo extract,zebrafish embryos; 24 hpf,33000 ng/mL and 33300 ng/mL
same,measured concentration in embryo extract,zebrafish embryos; 48 hpf,11600 ng/mL and 10100 ng/mL
same,BMC50 AXIS (curved or bent body axis at 120 hpf),"[1]; Fig. 2, nominal concentration",23.9 µM
same,BMC50 LTRK (lower trunk and/or caudal fin at 120 hpf),"[1]; Fig. 2, nominal concentration",30 µM
same,BMC50 MORT (mortality at 120 hpf),"[1]; Fig. 2, nominal concentration",not associated with mortality
same,BMC50 MUSC (muscular/cardiovascular at 120 hpf),"[1]; Fig. 2, nominal concentration",45.7 µM
same,BMC50 Any effect,[1]; nominal concentration,20.1 µM
same,any effect BMD50,[1],20.09 µM
same,estimated percent Any effect,[1],52%
same,"bmd, ANY_",[1]; [2],20.0865
same,"bmd, AXIS",[1]; [3],23.9279
same,"bmd, LTRK","[1]; benchmark dose, morphology endpoint LTRK",29.9891
same,"bmd, MUSC","[1]; benchmark dose, morphology endpoint MUSC",45.7133

# Reference: publication PMC12560828, “Chemical structure drives developmental toxicity of alkyl-substituted naphthalenes in zebrafish” (Environment international, 2025)
